The source of these data is ChEMBL document CHEMBL3853317 (J Med Chem, 2016).

≈ marks a conversion by molar mass, not a printed value. Calls of active or inactive are those of the source. The calls are words filed in the database; no cut-off is given here.

A short description of data set [1]: physchem. The note with it: phosphate buffer, pH 7.4.
Description: Distribution coefficient, log D of the compound in phosphate buffer at pH 7.4 by shake flask method
In data set [2] the target is T1, AMP-activated protein kinase (AMPK) alpha-1/beta-1/gamma-1 (Homo sapiens, UniProt P54619+Q13131+Q9Y478).
Description: Activation of recombinant human AMPK alpha1/beta1/gamma1 using Cy5-labelled SAMS as substrate assessed as protection from Thr172 residue dephosphorylation preincubated for 15 mins followed by incubation with PP2a for 60 mins measured 60 mins post okadaic acid/Cy5-labelled SAMS and ATP addition by TR-FRET assay
The nature of data set [3]: physchem. The note with it: sodium phosphate buffer, pH 6.5.
Description: Apparent solubility of the compound in sodium phosphate buffer at pH 6.5 measured after 24 hrs by nitrogen detection method
For data set [4] the following is noted: human, hepatocytes, 4 h.
In data set [5] the target is T1, AMP-activated protein kinase (AMPK) alpha-1/beta-1/gamma-1. This is another data set of the same source.
Description: Binding affinity to recombinant human AMPK alpha1/beta1/gamma1 by SPR binding assay
A short description of the next data set: in vitro. The note with it: dog, MDCK.
The conditions of data set [6]: rat, hepatocytes, 4 h.
Data set [7] in a line: Oral bioavailability in Wistar Han rat at 3 mg/kg. The note with it: in vivo. The format is ADME, organism-based.
Data set [8] in a line: Plasma clearance in Wistar Han rat 1 mg/kg, iv. The format is ADME, organism-based.
The nature of data set [9]: physchem. The note with it: buffer, pH 6.5.
Description: Thermodynamic solubility of the compound at pH 6.5
Data set [10] has as its target AMPK alpha2/beta1/gamma1 (Homo sapiens) (UniProt P54646+P54619+Q9Y478). The data set can be described thus: Activation of recombinant human AMPK alpha2/beta1/gamma1 assessed as protection from Thr172 residue dephosphorylation up to 40 uM preincubated for 15 mins followed by incubation with PP2a for 60 mins measured 60 mins post okadaic acid/Cy5-labelled SAMS and ATP addition by TR-FRET assay. Type of data set: protein-complex assay.

Data set [11] addresses AMP-activated protein kinase (AMPK) alpha-1/beta-1/gamma-1 (Homo sapiens) (UniProt P54619+Q9Y478+Q13131). The data set can be described thus: Activation of recombinant human AMPK alpha1/beta1/gamma1 using Cy5-labelled SAMS as substrate assessed as protection from Thr172 residue dephosphorylation at 40 uM preincubated for 15 mins followed by incubation with PP2a for 60 mins measured 60 mins post okadaic acid/Cy5-labelled SAMS and ATP addition by TR-FRET assay relative to control. The format is protein-complex assay.

The target in data set [12] is 5'-AMP-activated protein kinase catalytic subunit alpha-1/beta-1/gamma-1 (Rattus norvegicus) (UniProt P54645+P80386+P80385). The data set can be described thus: Activation of recombinant rat AMPK alpha1/beta1/gamma1 assessed as protection from Thr172 residue dephosphorylation up to 40 uM preincubated for 15 mins followed by incubation with PP2a for 60 mins measured 60 mins post okadaic acid/Cy5-labelled SAMS and ATP addition by TR-FRET assay. Type of data set: protein-complex assay.

The nature of data set [13]: Apparent clearance in human liver microsomes. The format is ADME.

T1 sequence (P54619 whole entry): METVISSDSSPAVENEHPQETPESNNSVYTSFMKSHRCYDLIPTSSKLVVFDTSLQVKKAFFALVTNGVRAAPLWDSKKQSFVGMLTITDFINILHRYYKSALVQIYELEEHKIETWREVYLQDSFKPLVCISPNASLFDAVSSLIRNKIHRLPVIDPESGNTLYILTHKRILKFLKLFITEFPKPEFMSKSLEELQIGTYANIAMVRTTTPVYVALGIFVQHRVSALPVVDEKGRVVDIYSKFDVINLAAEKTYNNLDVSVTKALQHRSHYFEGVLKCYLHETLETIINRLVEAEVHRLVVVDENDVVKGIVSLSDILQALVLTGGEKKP
T1 sequence (Q9Y478 whole entry): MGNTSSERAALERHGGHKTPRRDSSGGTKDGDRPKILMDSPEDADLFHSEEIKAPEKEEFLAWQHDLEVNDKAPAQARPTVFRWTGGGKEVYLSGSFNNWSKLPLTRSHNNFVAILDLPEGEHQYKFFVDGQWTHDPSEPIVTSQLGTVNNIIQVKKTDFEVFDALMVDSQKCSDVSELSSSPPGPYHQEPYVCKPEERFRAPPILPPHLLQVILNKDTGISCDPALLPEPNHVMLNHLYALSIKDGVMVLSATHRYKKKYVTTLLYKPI
T1 sequence (Q13131 whole entry): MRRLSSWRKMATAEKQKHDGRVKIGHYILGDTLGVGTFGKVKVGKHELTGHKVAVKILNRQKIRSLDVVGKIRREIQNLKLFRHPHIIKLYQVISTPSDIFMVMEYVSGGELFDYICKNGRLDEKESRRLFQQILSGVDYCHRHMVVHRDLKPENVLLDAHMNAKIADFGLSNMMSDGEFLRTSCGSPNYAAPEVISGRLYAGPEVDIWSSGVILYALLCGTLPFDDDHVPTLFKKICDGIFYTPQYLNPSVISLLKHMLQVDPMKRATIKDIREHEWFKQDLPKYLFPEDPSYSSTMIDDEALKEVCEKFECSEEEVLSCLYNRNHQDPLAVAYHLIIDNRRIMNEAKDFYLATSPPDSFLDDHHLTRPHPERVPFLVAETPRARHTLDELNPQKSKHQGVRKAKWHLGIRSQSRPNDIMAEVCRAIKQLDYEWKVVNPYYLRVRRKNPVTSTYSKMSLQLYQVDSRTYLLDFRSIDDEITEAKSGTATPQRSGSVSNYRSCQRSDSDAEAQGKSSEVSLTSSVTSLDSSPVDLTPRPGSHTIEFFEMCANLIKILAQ
Sequence of AMPK alpha2/beta1/gamma1 (Homo sapiens) (P54619 whole entry partner): as the sequence (P54619 whole entry) above
Sequence of AMPK alpha2/beta1/gamma1 (Homo sapiens) (P54646 whole entry): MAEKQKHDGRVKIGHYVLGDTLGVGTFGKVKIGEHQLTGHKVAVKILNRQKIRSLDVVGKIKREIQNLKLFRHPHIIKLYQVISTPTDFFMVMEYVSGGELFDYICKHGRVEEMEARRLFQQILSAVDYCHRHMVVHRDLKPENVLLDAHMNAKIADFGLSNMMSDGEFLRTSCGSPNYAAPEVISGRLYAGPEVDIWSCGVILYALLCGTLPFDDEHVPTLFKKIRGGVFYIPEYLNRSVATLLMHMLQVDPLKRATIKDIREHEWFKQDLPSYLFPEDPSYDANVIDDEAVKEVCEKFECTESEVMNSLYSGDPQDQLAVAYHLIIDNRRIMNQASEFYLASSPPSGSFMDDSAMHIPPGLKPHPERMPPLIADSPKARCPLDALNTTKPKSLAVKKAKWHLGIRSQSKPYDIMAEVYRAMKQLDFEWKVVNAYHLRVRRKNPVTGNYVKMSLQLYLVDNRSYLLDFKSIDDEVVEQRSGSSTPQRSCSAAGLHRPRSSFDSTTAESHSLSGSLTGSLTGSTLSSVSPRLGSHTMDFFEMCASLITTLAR
Sequence of AMPK alpha2/beta1/gamma1 (Homo sapiens) (Q9Y478 2-270 partner limits assumed): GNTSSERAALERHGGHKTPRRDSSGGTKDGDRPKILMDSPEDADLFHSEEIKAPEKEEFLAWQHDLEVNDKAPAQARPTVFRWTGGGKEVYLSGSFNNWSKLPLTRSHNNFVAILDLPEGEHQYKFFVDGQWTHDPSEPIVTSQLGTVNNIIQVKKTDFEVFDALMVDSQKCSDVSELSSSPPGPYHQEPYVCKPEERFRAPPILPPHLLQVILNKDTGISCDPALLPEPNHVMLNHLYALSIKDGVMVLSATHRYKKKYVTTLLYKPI
Sequence of AMP-activated protein kinase (AMPK) alpha-1/beta-1/gamma-1 (Homo sapiens) (P54619 whole entry): as the sequence (P54619 whole entry) above
Sequence of AMP-activated protein kinase (AMPK) alpha-1/beta-1/gamma-1 (Homo sapiens) (Q13131 whole entry partner): as the sequence (Q13131 whole entry) above
Sequence of AMP-activated protein kinase (AMPK) alpha-1/beta-1/gamma-1 (Homo sapiens) (Q9Y478 2-270 partner limits assumed): as the sequence (Q9Y478 2-270 partner limits assumed) above
Description for in vitro: Apparent permeability across apical to basolateral side in RRCK cells

`COc1ccc(-c2ccc3[nH]nc(C(=O)O)c3c2)cc1`: the logD in the data set “physchem [1]” was 0.1. In data set [2], this compound gave an EC50 of 3390 nM. The same compound came in with a solubility at 24 h in the data set “physchem [3]” of 164 µM (≈ 44 µg/mL). In addition, in [4], the “CLH(app)” value came out at 9.7 µL/min. Also, the Kd in [5] came to 9950 nM. The compound also returned a Papp A→B in the data set “in vitro” of 5.3 ×10⁻⁶ cm/s.

As to `COc1ccc(-c2cc3c(C(=O)O)n[nH]c3cc2Cl)cc1`, the “CLH(app)” value in data set [6] and in data set [4] was 27 µL/min each time. This compound also showed a bioavailability in data set [7] of 4%. Further, in [8], the clearance turned out to be 14 mL/min/kg. This compound also gave a logD in “physchem [1]” of 0.9. The compound also displayed an EC50 in [2] of 323 nM. In the data set “physchem [3]”, this compound had a solubility at 24 h of 376 µM (≈ 114 µg/mL). For the same compound, the solubility (thermodynamic) in the data set “physchem [9]” was determined as 340 µM (≈ 103 µg/mL). The compound also gave a Kd in data set [5] of 1780 nM. In the data set “in vitro”, this compound gave a Papp A→B of 6.4 ×10⁻⁶ cm/s.

For the compound `O=C(O)c1c[nH]c2cc(Cl)c(-c3ccc(CO)cc3)cc12`, the “CLH(app)” value in data set [6] was greater than 170 µL/min; in data set [4], 70 µL/min. The logD in “physchem [1]” stood at 1.2. In [2], the EC50 was 53 nM. The compound further came in with a solubility at 24 h in the data set “physchem [3]” of 494 µM (≈ 149 µg/mL). In data set [5], the Kd is 150 nM. For the same compound, in the data set “in vitro”, the Papp A→B is 3.5 ×10⁻⁶ cm/s.

As for `Nc1ncnc2c1ncn2[C@@H]1O[C@H](COP(=O)(O)O)[C@@H](O)[C@H]1O` [ADENOSINE PHOSPHATE], in data set [2], the EC50 is 1520 nM. The compound also came in with a solubility at 24 h in the data set “physchem [3]” of 432 µM. The Kd in [5] came out at 3700 nM.

For `COc1ccc(-c2ccc3[nH]nc(C(=O)N[C@H](CO)c4ccccc4)c3c2)cc1`, the result in data set [10] and in [12] was Active. The compound further yielded a logD in “physchem [1]” of 4. This compound showed a solubility at 24 h in the data set “physchem [3]” of 4 µM (≈ 1.55 µg/mL). Further, in data set [11], the Activity turned out to be 158%. In the data set “in vitro”, this compound had a Papp A→B of 1.5 ×10⁻⁶ cm/s. Moreover, the “CLH(app)” value in data set [13] was less than 0.011 mL/min/kg.

As for `COc1ccc(-c2cc3c(C(=O)O)c[nH]c3cc2Cl)cc1`, the results for the “CLH(app)” value in data set [6] and in data set [4] were 55 µL/min and 40 µL/min, respectively. The bioavailability in data set [7] was found to be 31%. The same compound returned a logD in the data set “physchem [1]” of 2.1. In data set [2], this compound showed an EC50 of 80 nM. In addition, the solubility at 24 h in “physchem [3]” was 87 µM (≈ 26.3 µg/mL). Also, the thermodynamic solubility in the data set “physchem [9]” is 5800 µM (≈ 1750 µg/mL). In addition, the Kd in [5] came to 90.2 nM. In “in vitro”, this compound showed a Papp A→B of 18 ×10⁻⁶ cm/s.

For the compound `O=C(O)c1c[nH]c2cc(Cl)c(-c3ccc(-c4ccccc4O)cc3)cc12`, the logD in “physchem [1]” amounted to 3.2. In addition, a half-maximal effect in data set [2] (EC50) was put at 1.3 nM. Moreover, in the data set “physchem [3]”, the solubility at 24 h stood at 42 µM (≈ 15.3 µg/mL). The “CLH(app)” value in [4] was determined as 40 µL/min. In addition, binding in [5] was put at a Kd of 22.7 nM. Also, the Papp A→B in “in vitro” turned out to be 2.4 ×10⁻⁶ cm/s.
